Data as given in publication PMC7472781, “Inherited and Acquired Determinants of Hepatic CYP3A Activity in Humans” (Frontiers in Genetics, 2020).
Marks after values point to notes of the source that are not given here.

How the values were obtained:
[1] = test system: CYP3A; experiment: Multifactorial analysis of genetic and environmental effects on the CYP3A probe drugs and biomarkers; details: in vivo
Procedure: DNA was isolated from whole venous blood by automated solid phase extraction with the EZ1^TM DNA Blood 350 μl Kit using the Bio-robot EZ1^TM (both Qiagen, Hilden, Germany). The CYP3A4^∗1b and ^∗22 alleles as well as the CYP3A5^∗1/^∗3 polymorphism were genotyped by DNA sequencing using fluorescence-labeled dideoxynucleotides and detection via Gene Mapper v3.7 Software® (Applied Biosystems®, Foster City, United States). Zygosity was assessed by analyzing variants in 23 polymorphic genes. Monozygosity was concluded when there were no differences regarding the polymorphisms in both siblings of one twin pair.
(§1) Predefined primary endpoint was midazolam AUC. All concentrations and pharmacokinetic parameters were determined on three independent occasions to compare intra- versus interindividual variation. […] In structural equation modeling of heritability and in the other multifactorial analyses the individual means from the measurements or parameters obtained on the three occasions were used. Using structural equation analysis, variation was separated into additive genetic (A), common environmental (C), and unique environmental (E) effects. The heritability is the proportion of the variance resulting from the genetic effect (A). In order to investigate the genetic, common environmental, and unique environmental effects of the different traits taken into account, the possible correlation between traits were fitted in multivariate ACE, AE, and CE biometrical models using the mcglm package for multivariate regression analysis in R. As an exploratory analysis, we computed the correlation between MZ and DZ twins based on an unstructured (equal mean and variance for MZ and DZ twins) model. In all models, the mean structure for each trait was specified as a linear function of the covariates age and sex.

[2] = test system: CYP3A; experiment: Within- and between-subject variance and genetic component (Kalow) of the 4 CYP3A biomarkers, three occasions
Procedure: as §1

[3] = test system: CYP3A; details: in vivo
Procedure: Cholesterol and 4ß-OH cholesterol were measured in the baseline blood samples before drug administration. All samples were centrifuged for 10 min (4000 rpm) at 4°C and the plasma was stored at −20°C.
Calibration samples for cholesterol were prepared in isooctane with 10% 2-propanol in the concentration range from 1 to 30 μg. Calibration samples for 4ß-hydroxycholesterol were prepared in isooctane with 0.8% 2-propanol from 5 to 100 ng. […] Calibration samples were worked up as the samples, and analyzed together with the unknown samples. […] The concentration in unknown samples was obtained from the regression line.

[4] = test system: CYP3A; experiment: Twin correlations and structural equation modeling (ACE, AE, CE) of heritability of the CYP3A biomarkers; details: in vivo
Procedure: as §1

`C[C@]12CCC(=O)C=C1[C@@H](O)C[C@@H]1[C@@H]2[C@@H](O)C[C@@]2(C)[C@H]1CC[C@]2(O)C(=O)CO` [6ß-OH-cortisol, 6-ß-hydroxycortisol] was tested, and the “Coefficient, CYP3A4*22” value [1] was −127.40, the “Coefficient, CYP3A5*3” value [1] was 0.70 and the “Coefficient, age” value [1] was 0.94. The “Coefficient, lean body weight” value [1] was −1.35, the “Coefficient, sex” value [1] was −9.28 and the “Coefficient, smoking status” value [1] was −8.66. The “Coefficient, oral contraceptives” value ([1]; po) was 3.37, the Genetic component ([2]; from intra- and inter-individual variation, independent of twin status, AUC, plasma concentration or 24-h urine Ae) was 0.457 and the “Variance between subjects (Varb) of Ae (24-h-urine)” value ([2]; human, in vivo) was 8141 μg/24 h. The “Variance within subjects (Varw) of Ae (24-h-urine)” value ([2]; three occasions) was 4247 μg/24 h, the “Ae (24-h-urine), mean” value [3] was 222 μg/24 h and the “Variation due to additive genetic (inherited) effects” value [4] was 31%. For the same compound, the “rdz (correlation between DZ twins)” value [4] was 0.50 (0.13)* and the “rmz (correlation between MZ twins)” value [4] was 0.68 (0.06)*.
